How the values were obtained:
Format in all cases: in vivo, NOD.B10-H2b mice
Muc5AC = assay: Immunofluorescence staining of Muc5AC in cornea and conjunctiva of dry eye-induced mice; details: eye drop instillation for 10 days, immunofluorescence (FIGS. 6 and 7)
Procedure: (§1) 12-week-old or older NOD.B10-H2b mice were kept in a chamber with a humidity of 40% or lower for 10 days. Scopolamine hydrobromide (Sigma-Aldrich, SLBR8568V) at a concentration of 0.5 mg/0.2 ml was injected subcutaneously into the thigh 4 times (9 am, 12 pm, 3 pm, and 6 pm) daily while the mice were kept in the chamber. After 10 days, tear secretion volume and corneal smoothness score were measured, and only those mice with a tear secretion volume of 0.06 μl or lower and a corneal smoothness score of 2 or lower were selected.
(§2) For each test drug, eye drop instillation was performed as follows: Vehicle, 4 times a day; Diquas (Santen Pharmaceutical Co., Ltd., Japan), 6 times a day; Xiidra (Shire plc, USA), twice a day; and GBT-201, twice or 4 times a day. After 10 days, each group of mice was sacrificed, the eyeballs were collected, and tissue immunostaining and molecular biological analysis were performed (FIG. 1). […]
(§3) Specifically, the eyeballs of the mice sacrificed in Experimental Example 1 were collected, and the eyes and adnexa, which had been fixed in formalin for 3 days, were cut into 6 μm sections using a microtome. […] The mounted slide was photographed using a fluorescence microscope (Leica DM2500, Leica Microsystems GmbH, Wetzlar, Germany).

Muc16 = assay: Immunofluorescence staining of Muc16 in cornea and conjunctiva of dry eye-induced mice; details: corneal and conjunctival epithelium; eye drop instillation for 10 days; immunofluorescence (FIGS. 6 and 7)
Procedure: as §1, §2, §3

Muc4 = assay: Immunofluorescence staining of Muc4 in cornea and conjunctiva of dry eye-induced mice; details: corneal and conjunctival epithelium; eye drop instillation for 10 days; immunofluorescence (FIGS. 6 and 7)
Procedure: as §1, §2, §3

[1] = tested on: mucin secreted in the conjunctiva; assay: Amount of mucin secreted by Alcian blue staining of eyeball sections from dry eye-induced mice after eye drop instillation; details: eye drop instillation for 10 days; Alcian blue staining photographs (FIG. 4)
Procedure: as §1
(§4) For each test drug, eye drop instillation was performed as follows: Vehicle, 4 times a day; Diquas (Santen Pharmaceutical Co., Ltd., Japan), 6 times a day; Xiidra (Shire plc, USA), twice a day; and GBT-201, twice or 4 times a day. After 10 days, each group of mice was sacrificed, the eyeballs were collected, and tissue immunostaining and molecular biological analysis were performed (FIG. 1).
In order to identify whether thymosin beta 4 results in an increase in amount of mucin secreted in the conjunctiva, the eyeballs of the mice sacrificed in Experimental Example 1 were collected and assessed through Alcian blue staining.
Specifically, the eyeballs of the mice sacrificed in Experimental Example 1 were collected, and the eyes and adnexa, which had been fixed in formalin for 3 days, were cut into 6 μm sections using a microtome. […]

[2] = tested on: goblet cells in the conjunctiva; assay: Goblet cell number by PAS staining of eyeball sections from dry eye-induced mice after eye drop instillation; details: eye drop instillation for 10 days; PAS staining photographs (FIG. 2)
Procedure: as §1, §4
In order to identify whether thymosin beta 4 promotes proliferation of goblet cells, which are cells that secrete mucin in the conjunctiva, the eyeballs of the mice sacrificed in Experimental Example 1 were collected and assessed through periodicacid-Schiff (PAS) staining. […]

Muc1 = assay: Immunofluorescence staining of Muc1 in cornea and conjunctiva of dry eye-induced mice; details: corneal and conjunctival epithelium; eye drop instillation for 10 days; immunofluorescence (FIGS. 6 and 7)
Procedure: as §1, §2, §3

thymosin beta 4 (SDKPDMAEIEKFDKSKLKKTETQEKNPLPSKETIEQEKQAGES; thymosin beta 4; listed as Homo sapiens)
increased: expression level of Muc5AC as compared with the DS D10 control group, visually identified (Muc5AC) | expression level of Muc16 as compared with the DS D10 control group, visually identified (Muc16) | expression level of Muc4 as compared with the DS D10 control group, visually identified (Muc4) | amount of mucin secreted as compared with the DS D10 control group, visually identified [1] | number of goblet cells as compared with the DS D10 control group, visually identified [2] | expression level of Muc1 as compared with the DS D10 control group, visually identified (Muc1)

From patent US20200353052A1, “COMPOSITION FOR PROMOTING GOBLET CELL PROLIFERATION OR MUCIN SECRETION COMPRISING THYMOSIN BETA 4 OR DERIVATIVE THEREOF AS ACTIVE INGREDIENT” (G-TREEBNT CO., LTD., priority 2017, published 2020)
